Source: ChEMBL document CHEMBL4680171, “Oxadiazolylthiazoles as novel and selective antifungal agents” (Eur J Med Chem, 2020)
Values after ≈ are worked out from the molar mass of the structure shown. Active and inactive are the calls of the source. The rule behind the calls is not given here.

What was measured:
[1] = Selectivity index, ratio of maximum non-toxic concentration for human Caco-2 cells to MIC for antifungal activity against fluconazole-resistant Candida auris 381; type: toxicity; conditions: read-out: Selectivity Index
[2] = Selectivity index, ratio of CC50 for African green monkey Vero cells to MIC for antifungal activity against Candida parapsilosis ATCC 22019; type: toxicity; conditions: read-out: Selectivity Index
[3] = Cytotoxicity against African green monkey Vero cells assessed as reduction in cell viability incubated for 2 hrs by MTS assay; type: cell-based; conditions: chlorocebus sabaeus
Candida albicans [4] = assay: Antifungal activity against Candida albicans SS5314 assessed as reduction in fungal growth by CLSI based broth microdilution method; type: functional
[5] = Selectivity index, ratio of CC50 for African green monkey Vero cells to MIC for antifungal activity against fluconazole-resistant Candida auris 381; type: toxicity; conditions: read-out: Selectivity Index
[6] = Selectivity index, ratio of CC50 for African green monkey Vero cells to MIC for antifungal activity against Candida albicans ATCC 10231; type: toxicity; conditions: read-out: Selectivity Index
Candida albicans [7] = assay: Antibiofilm activity against 24 hrs preformed biofilm of Candida albicans NR29448 assessed as disruption of mature biofilm at 64 ug/ml incubated for 24 hrs by crystal violet staining based spectrophotometry relative to control; type: functional; conditions: dose 64 µg/ml
Candida parapsilosis = assay: Antifungal activity against Candida parapsilosis ATCC 22019 assessed as reduction in fungal growth incubated for 24 hrs by CLSI based broth microdilution method; type: functional; conditions: Lodderomyces parapsilosis
Candida albicans [8] = assay: Antifungal activity against Candida albicans SS5314 assessed as reduction in fungal growth incubated for 24 hrs by CLSI based broth microdilution method; type: functional
[9] = Selectivity index, ratio of CC50 for African green monkey Vero cells to MIC for antifungal activity against Candida glabrata ATCC 66032; type: toxicity; conditions: read-out: Selectivity Index
Pichia kudriavzevii [10] = assay: Antifungal activity against Candida krusei CAB 396420 assessed as reduction in fungal growth incubated for 24 hrs by CLSI based broth microdilution method; type: functional
[11] = Selectivity index, ratio of maximum non-toxic concentration for human Caco-2 cells to MIC for antifungal activity against Cryptococcus gattii NR43210; type: toxicity; conditions: read-out: Selectivity Index
[Candida] auris [12] = Antifungal activity against fluconazole-resistant Candida auris 384 assessed as reduction in fungal growth incubated for 24 hrs by CLSI based broth microdilution method; type: functional; conditions: Candidozyma auris
[13] = Selectivity index, ratio of maximum non-toxic concentration for human Caco-2 cells to MIC for antifungal activity against Cryptococcus neoformans NR48770; type: toxicity; conditions: read-out: Selectivity Index
[14] = Selectivity index, ratio of CC50 for African green monkey Vero cells to MIC for antifungal activity against Candida glabrata ATCC MYA-2950; type: toxicity; conditions: read-out: Selectivity Index
Aspergillus fumigatus = assay: Antifungal activity against Aspergillus fumigatus NR 35304 assessed as reduction in fungal growth incubated for 24 hrs by CLSI based broth microdilution method; type: functional
Candida albicans [15] = assay: Antibiofilm activity against Candida albicans NR29448 assessed as reduction in biofilm formation at 0.5XMIC incubated for 24 hrs by crystal violet staining based assay relative to control; type: functional
[Candida] auris [16] = Antifungal activity against fluconazole-resistant Candida auris 383 assessed as reduction in fungal growth incubated for 24 hrs by CLSI based broth microdilution method; type: functional; conditions: Candidozyma auris
Cryptococcus neoformans [17] = assay: Antifungal activity against Cryptococcus neoformans NR41298 assessed as reduction in fungal growth incubated for 48 hrs by CLSI based broth microdilution method; type: functional
Lactobacillus gasseri = assay: Antibacterial activity against Lactobacillus gasseri HM-400 assessed as reduction in bacterial growth by CLSI based assay
Nakaseomyces glabratus [18] = assay: Antifungal activity against Candida glabrata ATCC 66032 assessed as reduction in fungal growth incubated for 24 hrs by CLSI based broth microdilution method; type: functional
Lacticaseibacillus casei = assay: Antibacterial activity against Lactobacillus casei HM-334 assessed as reduction in bacterial growth by CLSI based assay; type: organism-based
[19] = Selectivity index, ratio of maximum non-toxic concentration for human Caco-2 cells to MIC for antifungal activity against Candida krusei CAB 396420; type: toxicity; conditions: read-out: Selectivity Index
Staphylococcus aureus = assay: Antibacterial activity against methicillin resistant Staphylococcus aureus subsp. aureus USA300 assessed as reduction in bacterial growth by CLSI based broth microdilution method; type: functional
Pichia kudriavzevii [20] = assay: Antifungal activity against Candida krusei ATCC 34135 assessed as reduction in fungal growth incubated for 24 hrs by CLSI based broth microdilution method; type: functional
Lactobacillus crispatus = assay: Antibacterial activity against Lactobacillus crispatus HM-370 assessed as reduction in bacterial growth by CLSI based assay
Clostridioides difficile = assay: Antibacterial activity against Clostridium difficile BAA1870 assessed as reduction in bacterial growth by CLSI based broth microdilution method; type: functional
Cryptococcus neoformans [21] = assay: Antifungal activity against Cryptococcus neoformans NR41300 assessed as reduction in fungal growth incubated for 48 hrs by CLSI based broth microdilution method; type: functional
Candida albicans [22] = assay: Antifungal activity against fluconazole-resistant Candida albicans NR29448 assessed as reduction in fungal growth incubated for 24 hrs by CLSI based broth microdilution method; type: functional
[23] = Selectivity index, ratio of maximum non-toxic concentration for human Caco-2 cells to MIC for antifungal activity against Candida krusei ATCC 34135; type: toxicity; conditions: read-out: Selectivity Index
[24] = Selectivity index, ratio of maximum non-toxic concentration for human Caco-2 cells to MIC for antifungal activity against Cryptococcus neoformans NR41298; type: toxicity; conditions: read-out: Selectivity Index
[25] = system: Cryptococcus gattii species complex; assay: Antifungal activity against Cryptococcus gattii NR43209 assessed as reduction in fungal growth incubated for 48 hrs by CLSI based broth microdilution method; type: functional, Cryptococcus bacillisporus
[26] = Selectivity index, ratio of maximum non-toxic concentration for human Caco-2 cells to MIC for antifungal activity against Candida glabrata ATCC 66032; type: toxicity; conditions: read-out: Selectivity Index
Candida albicans [27] = assay: Antifungal activity against Candida albicans SS5314 assessed as reduction in fungal growth measured after 10 passages by CLSI based broth microdilution method; type: functional, organism-based
[28] = Selectivity index, ratio of CC50 for African green monkey Vero cells to MIC for antifungal activity against fluconazole-resistant Candida auris 383; type: toxicity; conditions: read-out: Selectivity Index
[29] = system: Cryptococcus gattii species complex; assay: Antifungal activity against Cryptococcus gattii NR43210 assessed as reduction in fungal growth incubated for 48 hrs by CLSI based broth microdilution method; type: functional, Cryptococcus bacillisporus
[30] = Cytotoxicity against human Caco-2 cells assessed as cell viability up to 64 ug/ml incubated for 24 hrs by MTS assay; type: cell-based; conditions: dose <=64 µg/ml, read-out: Activity
[31] = Selectivity index, ratio of maximum non-toxic concentration for human Caco-2 cells to MIC for antifungal activity against fluconazole-resistant Candida auris 384; type: toxicity; conditions: read-out: Selectivity Index
Escherichia coli = assay: Antibacterial activity against Escherichia coli BW25113 assessed as reduction in bacterial growth by CLSI based broth microdilution method; type: functional
Nakaseomyces glabratus [32] = assay: Antifungal activity against Candida glabrata ATCC MYA-2950 assessed as reduction in fungal growth incubated for 24 hrs by CLSI based broth microdilution method; type: functional
[33] = Selectivity index, ratio of maximum non-toxic concentration for human Caco-2 cells to MIC for antifungal activity against fluconazole-resistant Candida auris 383; type: toxicity; conditions: read-out: Selectivity Index
[34] = Selectivity index, ratio of CC50 for African green monkey Vero cells to MIC for antifungal activity against Aspergillus fumigatus NR 35303; type: toxicity; conditions: read-out: Selectivity Index
[35] = Selectivity index, ratio of maximum non-toxic concentration for human Caco-2 cells to MIC for antifungal activity against fluconazole-resistant Candida albicans NR29448; type: toxicity; conditions: read-out: Selectivity Index

Q: For `Cc1nc(-c2ccc(C(C)(C)C)cc2)sc1-c1nnc(N[C@@H]2CCCC[C@@H]2N)o1` (relative stereo), which selectivity ratio [1] is on record?
A: The selectivity ratio was at most 64.

Q: What about the selectivity ratio [2] of the same molecule?
A: Its selectivity ratio is at most 64.

Q: What about the CC50 at 2 h [3] of the same molecule?
A: Its CC50 at 2 h is over 64 µg/mL.

Q: And the MIC (Candida albicans [4])?
A: The MIC was 1 µg/mL (≈ 2.43 µM).

Q: And the selectivity ratio [5]?
A: The selectivity ratio was at most 64.

Q: What about the selectivity ratio [6] of the same molecule?
A: Its selectivity ratio is at most 64.

Q: And the Activity (Candida albicans [7])?
A: Its Activity is 16%.

Q: And the MIC (Candida parapsilosis)?
A: The MIC was 1 µg/mL (≈ 2.43 µM).

Q: What about the MIC (Candida albicans [8]) of the same molecule?
A: Its MIC is 2 µg/mL (≈ 4.86 µM).

Q: What about the selectivity ratio [9] of the same molecule?
A: The selectivity ratio was at most 64.

Q: What about the MIC (Pichia kudriavzevii [10]) of the same molecule?
A: The MIC was 1 µg/mL (≈ 2.43 µM).

Q: And the selectivity ratio [11]?
A: The selectivity ratio was at most 64.

Q: What about the MIC ([Candida] auris [12]) of the same molecule?
A: Its MIC is 4 µg/mL (≈ 9.72 µM).

Q: What about the selectivity ratio [13] of the same molecule?
A: Its selectivity ratio is at most 64.

Q: And the selectivity ratio [14]?
A: The selectivity ratio was at most 64.

Q: And the MIC (Aspergillus fumigatus)?
A: Its MIC is 4 µg/mL (≈ 9.72 µM).

Q: What about the “inhibition (INH)” value (Candida albicans [15]) of the same molecule?
A: Its value is 40%.

Q: And the MIC ([Candida] auris [16])?
A: Its MIC is 2 µg/mL (≈ 4.86 µM).

Q: What about the MIC (Cryptococcus neoformans [17]) of the same molecule?
A: The MIC was 2 µg/mL (≈ 4.86 µM).

Q: What about the MIC (Lactobacillus gasseri) of the same molecule?
A: The MIC was 128 µg/mL (≈ 311 µM).

Q: And the MIC (Nakaseomyces glabratus [18])?
A: The MIC was 0.5 µg/mL (≈ 1.21 µM).

Q: What about the MIC (Lacticaseibacillus casei) of the same molecule?
A: The MIC was over 128 µg/mL.

Q: What about the selectivity ratio [19] of the same molecule?
A: The selectivity ratio was at most 64.

Q: And the MIC (Staphylococcus aureus)?
A: The MIC was over 64 µg/mL.

Q: And the MIC (Pichia kudriavzevii [20])?
A: The MIC was 2 µg/mL (≈ 4.86 µM).

Q: What about the MIC (Lactobacillus crispatus) of the same molecule?
A: The MIC was over 128 µg/mL.

Q: And the MIC (Clostridioides difficile)?
A: Its MIC is 64 µg/mL (≈ 156 µM).

Q: What about the MIC (Cryptococcus neoformans [21]) of the same molecule?
A: Its MIC is 2 µg/mL (≈ 4.86 µM).

Q: And the MIC (Candida albicans [22])?
A: The MIC was 8 µg/mL (≈ 19.4 µM).

Q: What about the selectivity ratio [23] of the same molecule?
A: Its selectivity ratio is at most 64.

Q: And the selectivity ratio [24]?
A: The selectivity ratio was at most 64.

Q: And the MIC [25]?
A: The MIC was 1 µg/mL (≈ 2.43 µM).

Q: What about the selectivity ratio [26] of the same molecule?
A: Its selectivity ratio is at most 64.

Q: What about the Activity (Candida albicans [27]) of the same molecule?
A: Its Activity is “Active”.

Q: And the selectivity ratio [28]?
A: The selectivity ratio was at most 64.

Q: What about the MIC [29] of the same molecule?
A: The MIC was 1 µg/mL (≈ 2.43 µM).

Q: And the viability at 24 h [30]?
A: Its viability at 24 h is 100%.

Q: What about the selectivity ratio [31] of the same molecule?
A: The selectivity ratio was at most 64.

Q: What about the MIC (Escherichia coli) of the same molecule?
A: Its MIC is over 64 µg/mL.

Q: What about the MIC (Nakaseomyces glabratus [32]) of the same molecule?
A: Its MIC is 0.125 µg/mL (≈ 0.304 µM).

Q: And the selectivity ratio [33]?
A: Its selectivity ratio is at most 64.

Q: What about the selectivity ratio [34] of the same molecule?
A: The selectivity ratio was at most 64.

Q: And the selectivity ratio [35]?
A: Its selectivity ratio is at most 64.
